Test results reported in patent US20130338178A1, “SIRTUIN MODULATORS AS INHIBITORS OF CYTOMEGALOVIRUS” (THE TRUSTEES OF PRINCETON UNIVERSITY, priority 2011, published 2013).
Peptide text beside a SMILES is read from it.

Assays:
sirtuin = target: T1, sirtuin (Homo sapiens, UniProt Q8IXJ6); settings: cited from earlier work
T1 sequence (Q8IXJ6 2-389 limits assumed): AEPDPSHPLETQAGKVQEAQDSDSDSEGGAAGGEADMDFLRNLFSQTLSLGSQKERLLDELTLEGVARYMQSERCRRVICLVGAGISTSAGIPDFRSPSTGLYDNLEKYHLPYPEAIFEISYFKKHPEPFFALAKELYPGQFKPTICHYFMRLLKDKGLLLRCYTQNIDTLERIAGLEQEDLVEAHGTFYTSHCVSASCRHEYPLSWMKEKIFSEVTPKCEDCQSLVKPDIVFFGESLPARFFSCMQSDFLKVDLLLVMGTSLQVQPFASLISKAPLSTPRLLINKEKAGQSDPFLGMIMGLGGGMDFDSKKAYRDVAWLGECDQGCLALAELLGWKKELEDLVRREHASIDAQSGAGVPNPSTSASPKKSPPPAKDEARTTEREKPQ

SIRT2 [1] = target: T2, SIRT2 (Homo sapiens, UniProt Q8IXJ6); settings: cited from earlier work
T2 sequence (Q8IXJ6 1-389): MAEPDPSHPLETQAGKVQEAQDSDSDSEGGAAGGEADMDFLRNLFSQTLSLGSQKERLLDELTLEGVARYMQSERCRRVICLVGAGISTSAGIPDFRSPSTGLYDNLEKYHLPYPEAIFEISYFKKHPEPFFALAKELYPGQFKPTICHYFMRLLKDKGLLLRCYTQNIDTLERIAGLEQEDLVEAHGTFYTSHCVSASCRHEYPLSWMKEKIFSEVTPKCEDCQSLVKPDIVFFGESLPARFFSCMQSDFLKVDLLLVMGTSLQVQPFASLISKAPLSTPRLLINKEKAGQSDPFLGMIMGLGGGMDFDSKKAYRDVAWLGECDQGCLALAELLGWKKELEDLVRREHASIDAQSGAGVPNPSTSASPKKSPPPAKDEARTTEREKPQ

Sirt6 = Sirt6 (Homo sapiens, UniProt Q8N6T7); settings: cited from earlier work
Sirt6, sequence (Q8N6T7 whole entry): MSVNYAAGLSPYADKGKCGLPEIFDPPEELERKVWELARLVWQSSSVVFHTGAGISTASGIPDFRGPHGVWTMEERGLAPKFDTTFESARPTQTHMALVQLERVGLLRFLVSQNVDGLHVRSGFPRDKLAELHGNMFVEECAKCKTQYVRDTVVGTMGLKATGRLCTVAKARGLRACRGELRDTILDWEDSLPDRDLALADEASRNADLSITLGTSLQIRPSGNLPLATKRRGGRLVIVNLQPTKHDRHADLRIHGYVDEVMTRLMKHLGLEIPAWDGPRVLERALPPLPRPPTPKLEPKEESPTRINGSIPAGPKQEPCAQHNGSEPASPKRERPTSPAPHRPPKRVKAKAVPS

Sirt5 = target: T3, Sirt5 (Homo sapiens, UniProt Q9NXA8); settings: cited from earlier work
T3 sequence (Q9NXA8 37-310): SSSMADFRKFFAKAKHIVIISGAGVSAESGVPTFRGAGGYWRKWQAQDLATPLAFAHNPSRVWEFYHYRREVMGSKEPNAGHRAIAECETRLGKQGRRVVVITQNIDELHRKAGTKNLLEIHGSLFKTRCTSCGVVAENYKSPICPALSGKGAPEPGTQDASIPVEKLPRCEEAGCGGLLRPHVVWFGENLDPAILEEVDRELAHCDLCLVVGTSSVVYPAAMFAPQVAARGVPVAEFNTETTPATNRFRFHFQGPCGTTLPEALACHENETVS

SIRT2 [2] = target: T2, SIRT2; settings: cited from earlier work; for Inhibition (at 60 μM ± SE (%)) SIRT2: n = 2
SIRT1 [3] = target: T4, SIRT1 (Homo sapiens, UniProt Q96EB6); settings: n = 2; cited from earlier work
T4 sequence (Q96EB6 1-747): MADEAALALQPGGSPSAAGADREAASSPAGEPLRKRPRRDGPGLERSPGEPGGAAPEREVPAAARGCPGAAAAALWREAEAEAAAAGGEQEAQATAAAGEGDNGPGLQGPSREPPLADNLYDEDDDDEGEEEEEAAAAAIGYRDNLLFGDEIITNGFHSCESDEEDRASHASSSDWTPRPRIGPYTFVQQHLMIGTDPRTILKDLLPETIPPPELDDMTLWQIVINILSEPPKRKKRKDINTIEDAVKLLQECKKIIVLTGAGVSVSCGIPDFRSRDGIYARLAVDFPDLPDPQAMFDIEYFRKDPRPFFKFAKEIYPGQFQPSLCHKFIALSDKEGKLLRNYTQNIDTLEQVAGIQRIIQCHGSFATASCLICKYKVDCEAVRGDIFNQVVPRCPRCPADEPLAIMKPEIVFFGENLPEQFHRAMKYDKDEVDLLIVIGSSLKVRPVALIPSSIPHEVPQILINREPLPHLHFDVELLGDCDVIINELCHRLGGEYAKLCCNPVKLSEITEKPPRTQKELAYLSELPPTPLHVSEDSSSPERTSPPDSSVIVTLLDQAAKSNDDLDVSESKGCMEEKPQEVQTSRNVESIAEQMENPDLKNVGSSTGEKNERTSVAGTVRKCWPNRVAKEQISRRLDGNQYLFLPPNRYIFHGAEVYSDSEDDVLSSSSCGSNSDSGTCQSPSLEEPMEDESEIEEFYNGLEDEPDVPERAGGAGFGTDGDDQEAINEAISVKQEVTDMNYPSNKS

HCMV pUL99 = test: Late viral pUL99 expression and cytopathic effect in HCMV infected MRC5 cells; format: cell-based, human cytomegalovirus; settings: 10 μM; data not shown
Hst2 = Hst2 (Saccharomyces cerevisiae, UniProt P53686); settings: cited from earlier work
Hst2, sequence (P53686 whole entry): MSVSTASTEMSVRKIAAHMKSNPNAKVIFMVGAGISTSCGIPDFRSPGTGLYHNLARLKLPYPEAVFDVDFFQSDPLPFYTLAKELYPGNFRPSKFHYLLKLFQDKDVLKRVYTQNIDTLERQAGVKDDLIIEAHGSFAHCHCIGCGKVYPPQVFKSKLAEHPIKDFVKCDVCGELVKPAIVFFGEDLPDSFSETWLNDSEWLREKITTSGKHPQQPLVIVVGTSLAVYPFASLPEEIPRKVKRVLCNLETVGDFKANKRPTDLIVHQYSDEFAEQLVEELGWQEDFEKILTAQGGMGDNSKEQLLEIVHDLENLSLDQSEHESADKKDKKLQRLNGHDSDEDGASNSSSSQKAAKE

SIRT1 [4] = target: T4, SIRT1; settings: cited from earlier work
SIRT1 [5] = target: T4, SIRT1; settings: cited from earlier work; remark: listed apart in the source
HCMV [6] = test: Yield of infectious HCMV from drug-treated infected MRC5 fibroblasts; format: cell-based, human cytomegalovirus; settings: FIG. 5
HCMV [7] = format: cell-based, human cytomegalovirus
[8] = test system: Influenza A (WSN/33/A, PR8); format: cell-based, influenza A virus

C(=Nc1ccc(N=Cc2ccccc2)cc1)c1ccccc1 [3a]
inhibition at 200 μM ± SD, % (sirtuin): 35 ± 1.4%

Oc1ccccc1C=Nc1ccc(N=Cc2ccccc2O)cc1 [3b]
inhibition at 200 μM ± SD, % (sirtuin): 56 ± 8.2%

Oc1cccc(C=Nc2ccc(N=Cc3cccc(O)c3)cc2)c1 [3c]
inhibition at 200 μM ± SD, % (sirtuin): 12 ± 0.9%

Oc1ccc(C=Nc2ccc(N=Cc3ccc(O)cc3)cc2)cc1 [3d]
inhibition at 200 μM ± SD, % (sirtuin): 22 ± 1.6%

COc1ccccc1C=Nc1ccc(N=Cc2ccccc2OC)cc1 [3f]
inhibition at 200 μM ± SD, % (sirtuin): 13 ± 0.5%

COc1cccc(C=Nc2ccc(N=Cc3cccc(OC)c3)cc2)c1 [3g]
inhibition at 200 μM ± SD, % (sirtuin): 20 ± 1.2%

c1ccc(CNc2ccc(NCc3ccccc3)cc2)cc1 [4a]
inhibition at 200 μM ± SD, % (sirtuin): 21 ± 1.7%

Oc1ccccc1CNc1ccc(NCc2ccccc2O)cc1 [4b]
inhibition at 200 μM ± SD, % (sirtuin): 27 ± 2.4%

Oc1cccc(CNc2ccc(NCc3cccc(O)c3)cc2)c1 [4c]
inhibition at 200 μM ± SD, % (sirtuin): 8 ± 0.4%

Oc1ccc(CNc2ccc(NCc3ccc(O)cc3)cc2)cc1 [4d]
inhibition at 200 μM ± SD, % (sirtuin): 14 ± 0.5%

O=C1c2ccccc2C(=O)c2c(NCc3cc4c5c(ccc6c7ccc8c9c(cc(Nc%10cccc%11c%10C(=O)c%10ccccc%10C%11=O)c(c3c56)c97)-c3ccccc3C8=O)C(=O)c3ccccc3-4)cccc21 [CSC6]
Sirt2 effect (SIRT2 [1]): inhibition | Sirt6 effect (Sirt6): inhibition

C/C(=C1/C=C(c2ccc3ccccc3c2)OC1=O)c1ccc(C(C)C)cc1 [CSC9]
Sirt2 effect (SIRT2 [1]): inhibition | Sirt5 effect (Sirt5): activation^c

O=Cc1ccc2c(c1)C(=O)c1ccc3c4ccc5c6c(ccc(c7ccc-2c1c37)c64)-c1ccc(C(=O)O)cc1C5=O [CSC14]
Sirt2 effect (SIRT2 [1]): inhibition | Sirt5 effect (Sirt5): inhibition

CN1CC(C(=O)NC2(C)OC3(O)C4CCCN4C(=O)C(Cc4ccccc4)N3C2=O)C=C2c3cccc4[nH]cc(c34)CC21 (stereo not drawn) [CSC21]
Sirt2 effect (SIRT2 [1]): inhibition | Sirt5 effect (Sirt5): inhibition | Sirt6 effect (Sirt6): inhibition

[H]/N=C(\c1ccccc1Cc1cccc2ccccc12)c1ccc(C)c2ccccc12 [CSC24]
Sirt2 effect (SIRT2 [1]): inhibition

O=C1OC2(c3ccc(O)cc3Oc3cc(O)ccc32)c2c1c(-c1ccccc1)c(-c1ccccc1)c(-c1ccccc1)c2-c1ccccc1 [CSC28]
Sirt2 effect (SIRT2 [1]): inhibition | Sirt6 effect (Sirt6): activation

COc1ccc2c(c1)Cc1cc(/N=[N+](\[O-])c3ccc4c(c3)Cc3cc(OC)ccc3-4)ccc1-2 [CSC32]
Sirt2 effect (SIRT2 [1]): inhibition

O=S1(=O)C(c2ccccc2)C(N2CCCCC2)C1C1CC2c3ccccc3C1c1ccccc12 (stereo not drawn) [CSC33]
Sirt5 effect (Sirt5): activation | Sirt6 effect (Sirt6): activation

O=C1C2C3c4ccccc4C(c4ccccc43)C2C(=O)N1c1ccc(OCc2ccccc2)cc1 (stereo not drawn) [CSC34]
Sirt2 effect (SIRT2 [1]): inhibition | Sirt6 effect (Sirt6): activation

O=S(=O)(c1cccc(C(F)(F)F)c1)N1c2ccccc2-n2cccc2C1c1cccnc1 (stereo not drawn) [CSC38]
Sirt2 effect (SIRT2 [1]): inhibition | Sirt5 effect (Sirt5): activation | Sirt6 effect (Sirt6): activation

O=c1[nH]c(=S)[nH]c(-c2ccc(Br)cc2)c1Cc1c(O)ccc2ccccc12 [Compd 6b]
IC50 (SIRT2 [2]; determined for compounds with over 60% inhibition at 60 μM): > 90 µM

O=c1[nH]c(=S)[nH]c(-c2ccc(Cl)cc2)c1Cc1c(O)ccc2ccccc12 [Compd 6iv]
Inhibition (at 60 μM ± SE (%)) SIRT1 (SIRT1 [3]): 13.7 ± 1% | Inhibition (at 60 μM ± SE (%)) SIRT2 (SIRT2 [2]): 20.1 ± 1%

O=c1[nH]c(=S)[nH]c(-c2cccc(Cl)c2)c1Cc1c(O)ccc2ccccc12 [Compd 6ix]
Inhibition (at 60 μM ± SE (%)) SIRT1 (SIRT1 [3]): 11.3 ± 1% | Inhibition (at 60 μM ± SE (%)) SIRT2 (SIRT2 [2]): 7.6 ± 6%

O=c1[nH]c(=S)[nH]c(-c2ccc(I)cc2)c1Cc1c(O)ccc2ccccc12 [Compd 6v]
Inhibition (at 60 μM ± SE (%)) SIRT1 (SIRT1 [3]): 7.7 ± 1% | Inhibition (at 60 μM ± SE (%)) SIRT2 (SIRT2 [2]): 7.7 ± 1%

O=c1[nH]c(=S)[nH]c(-c2ccc(C(F)(F)F)cc2)c1Cc1c(O)ccc2ccccc12 [Compd 6vi]
Inhibition (at 60 μM ± SE (%)) SIRT1 (SIRT1 [3]): 15.1 ± 1% | Inhibition (at 60 μM ± SE (%)) SIRT2 (SIRT2 [2]): 6.7 ± 1%

O=c1[nH]c(=S)[nH]c(-c2ccccc2Br)c1Cc1c(O)ccc2ccccc12 [Compd 6vii]
Inhibition (at 60 μM ± SE (%)) SIRT1 (SIRT1 [3]): 19.7 ± 1%

O=c1[nH]c(=S)[nH]c(-c2cccc(Br)c2)c1Cc1c(O)ccc2ccccc12 [Compd 6viii]
Inhibition (at 60 μM ± SE (%)) SIRT1 (SIRT1 [3]): 4.8 ± 1% | Inhibition (at 60 μM ± SE (%)) SIRT2 (SIRT2 [2]): 6.6 ± 3%

NC(=O)C1CCCc2c1[nH]c1ccc(Cl)cc21 (stereo not drawn) [EX-527]
accumulation of late viral pUL99 protein (HCMV pUL99): increased

Cc1ccc2[nH]c3c(c2c1)CCCC3C(N)=O (stereo not drawn) [Indole 2]
IC50 (Hst2): 14.5 ± 0.6 µM | IC50 (SIRT1 [4]): 640 ± 60 nM

c1cnc2ocnc2c1 [Oxazolopyridine]
EC1.5: The concentration to activate 1.5-fold (SIRT1 [5]): 0.09 µM

c1cc2c(ccc3ncc[nH]c32)n1 [Pyrroloquinoxaline]
activation at this concentration (SIRT1 [5]; 10 μM): *233% activation at this concentration | EC1.5: The concentration to activate 1.5-fold (SIRT1 [5]): 10 µM

COc1cc(C(=O)Nc2ccccc2-c2cn3c(CN4CCNCC4)csc3n2)cc(OC)c1OC [SRT1460]
EC1.5: The concentration to activate 1.5-fold (SIRT1 [5]): 2.9 µM

O=C(Nc1ccccc1-c1cn2c(CN3CCNCC3)csc2n1)c1cnc2ccccc2n1 [SRT1720]
EC1.5: The concentration to activate 1.5-fold (SIRT1 [5]): 0.16 µM

CC(C(=O)Nc1cccc(/N=C/c2c(O)ccc3ccccc23)c1)c1ccccc1 (stereo not drawn) [Salermide]
production of infectious HCMV (HCMV [6]): blocked | inhibition of HCMV production by a factor of (HCMV [7]): about 5 | inhibition of the production of HCMV progeny by a factor of (HCMV [7]): ~80 | production of infectious Influenza A progeny [8]: inhibited

O=C1CCc2c(ccc3ccccc23)O1 [Splitomycin]
IC50 (Hst2): > 600 µM

Cc1ccc(C(=O)Nc2ccc(S(=O)(=O)O)c3cc(S(=O)(=O)O)cc(S(=O)(=O)O)c23)cc1NC(=O)c1cccc(NC(=O)Nc2cccc(C(=O)Nc3cc(C(=O)Nc4ccc(S(=O)(=O)O)c5cc(S(=O)(=O)O)cc(S(=O)(=O)O)c45)ccc3C)c2)c1 [Suramin, suramin]
IC50 (Hst2): 240 ± 70 µM

CC(C)CCCCCCCCC[C@@H]1CC(=O)NC(CCC(=O)O)C(=O)N[C@@H](CC(C)C)C(=O)N[C@H](CC(C)C)C(=O)N[C@@H](C(C)C)C(=O)N[C@@H](CC(=O)O)C(=O)N[C@H](CC(C)C)C(=O)N[C@@H](CC(C)C)C(=O)O1 (stereo partly drawn) [Surfactin, surfactin] (HELM PEPTIDE1{[O=C(O)CCC(N[*:1])C(=O)[*:2]].L.[dL].V.D.[dL].L}|CHEM1{[CC(C)CCCCCCCCC[C@H](CC(=O)[*:1])O[*:2]]}$PEPTIDE1,CHEM1,1:R1-1:R1|PEPTIDE1,CHEM1,7:R2-1:R2$$$V2.0)
IC50 (Hst2): > 700 µM | IC50 (SIRT1 [4]): > 600000 nM

CN(C)CCCCC(=O)Nc1ccc(NC(=S)NC(=O)c2ccc(C(C)(C)C)cc2)cc1 [Tenovin 6]
production of infectious HCMV (HCMV [6]): blocked | IC50 (Hst2): > 100 µM
